Target: ATR kinase (full-length ATR) (Homo sapiens (Human), UniProt Q13535)
Assay: ATR inhibition assay (radioactive-phosphate incorporation)
Type: biochemical
Details: not given
In short: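 Ki(app) was fitted by non-linear regression to background-corrected initial rates. Full-length ATR (5 nM) phosphorylated 800 μM peptide using 10 μM [γ-33P]ATP at 25° C in Tris/HCl pH 7.5 buffer with MgCl2, DTT and 7% DMSO. After 10-minute compound pre-incubation and 24-hour reaction, phosphocellulose filters were scintillation counted.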

ATR kinase (full-length ATR), sequence (Q13535 whole entry): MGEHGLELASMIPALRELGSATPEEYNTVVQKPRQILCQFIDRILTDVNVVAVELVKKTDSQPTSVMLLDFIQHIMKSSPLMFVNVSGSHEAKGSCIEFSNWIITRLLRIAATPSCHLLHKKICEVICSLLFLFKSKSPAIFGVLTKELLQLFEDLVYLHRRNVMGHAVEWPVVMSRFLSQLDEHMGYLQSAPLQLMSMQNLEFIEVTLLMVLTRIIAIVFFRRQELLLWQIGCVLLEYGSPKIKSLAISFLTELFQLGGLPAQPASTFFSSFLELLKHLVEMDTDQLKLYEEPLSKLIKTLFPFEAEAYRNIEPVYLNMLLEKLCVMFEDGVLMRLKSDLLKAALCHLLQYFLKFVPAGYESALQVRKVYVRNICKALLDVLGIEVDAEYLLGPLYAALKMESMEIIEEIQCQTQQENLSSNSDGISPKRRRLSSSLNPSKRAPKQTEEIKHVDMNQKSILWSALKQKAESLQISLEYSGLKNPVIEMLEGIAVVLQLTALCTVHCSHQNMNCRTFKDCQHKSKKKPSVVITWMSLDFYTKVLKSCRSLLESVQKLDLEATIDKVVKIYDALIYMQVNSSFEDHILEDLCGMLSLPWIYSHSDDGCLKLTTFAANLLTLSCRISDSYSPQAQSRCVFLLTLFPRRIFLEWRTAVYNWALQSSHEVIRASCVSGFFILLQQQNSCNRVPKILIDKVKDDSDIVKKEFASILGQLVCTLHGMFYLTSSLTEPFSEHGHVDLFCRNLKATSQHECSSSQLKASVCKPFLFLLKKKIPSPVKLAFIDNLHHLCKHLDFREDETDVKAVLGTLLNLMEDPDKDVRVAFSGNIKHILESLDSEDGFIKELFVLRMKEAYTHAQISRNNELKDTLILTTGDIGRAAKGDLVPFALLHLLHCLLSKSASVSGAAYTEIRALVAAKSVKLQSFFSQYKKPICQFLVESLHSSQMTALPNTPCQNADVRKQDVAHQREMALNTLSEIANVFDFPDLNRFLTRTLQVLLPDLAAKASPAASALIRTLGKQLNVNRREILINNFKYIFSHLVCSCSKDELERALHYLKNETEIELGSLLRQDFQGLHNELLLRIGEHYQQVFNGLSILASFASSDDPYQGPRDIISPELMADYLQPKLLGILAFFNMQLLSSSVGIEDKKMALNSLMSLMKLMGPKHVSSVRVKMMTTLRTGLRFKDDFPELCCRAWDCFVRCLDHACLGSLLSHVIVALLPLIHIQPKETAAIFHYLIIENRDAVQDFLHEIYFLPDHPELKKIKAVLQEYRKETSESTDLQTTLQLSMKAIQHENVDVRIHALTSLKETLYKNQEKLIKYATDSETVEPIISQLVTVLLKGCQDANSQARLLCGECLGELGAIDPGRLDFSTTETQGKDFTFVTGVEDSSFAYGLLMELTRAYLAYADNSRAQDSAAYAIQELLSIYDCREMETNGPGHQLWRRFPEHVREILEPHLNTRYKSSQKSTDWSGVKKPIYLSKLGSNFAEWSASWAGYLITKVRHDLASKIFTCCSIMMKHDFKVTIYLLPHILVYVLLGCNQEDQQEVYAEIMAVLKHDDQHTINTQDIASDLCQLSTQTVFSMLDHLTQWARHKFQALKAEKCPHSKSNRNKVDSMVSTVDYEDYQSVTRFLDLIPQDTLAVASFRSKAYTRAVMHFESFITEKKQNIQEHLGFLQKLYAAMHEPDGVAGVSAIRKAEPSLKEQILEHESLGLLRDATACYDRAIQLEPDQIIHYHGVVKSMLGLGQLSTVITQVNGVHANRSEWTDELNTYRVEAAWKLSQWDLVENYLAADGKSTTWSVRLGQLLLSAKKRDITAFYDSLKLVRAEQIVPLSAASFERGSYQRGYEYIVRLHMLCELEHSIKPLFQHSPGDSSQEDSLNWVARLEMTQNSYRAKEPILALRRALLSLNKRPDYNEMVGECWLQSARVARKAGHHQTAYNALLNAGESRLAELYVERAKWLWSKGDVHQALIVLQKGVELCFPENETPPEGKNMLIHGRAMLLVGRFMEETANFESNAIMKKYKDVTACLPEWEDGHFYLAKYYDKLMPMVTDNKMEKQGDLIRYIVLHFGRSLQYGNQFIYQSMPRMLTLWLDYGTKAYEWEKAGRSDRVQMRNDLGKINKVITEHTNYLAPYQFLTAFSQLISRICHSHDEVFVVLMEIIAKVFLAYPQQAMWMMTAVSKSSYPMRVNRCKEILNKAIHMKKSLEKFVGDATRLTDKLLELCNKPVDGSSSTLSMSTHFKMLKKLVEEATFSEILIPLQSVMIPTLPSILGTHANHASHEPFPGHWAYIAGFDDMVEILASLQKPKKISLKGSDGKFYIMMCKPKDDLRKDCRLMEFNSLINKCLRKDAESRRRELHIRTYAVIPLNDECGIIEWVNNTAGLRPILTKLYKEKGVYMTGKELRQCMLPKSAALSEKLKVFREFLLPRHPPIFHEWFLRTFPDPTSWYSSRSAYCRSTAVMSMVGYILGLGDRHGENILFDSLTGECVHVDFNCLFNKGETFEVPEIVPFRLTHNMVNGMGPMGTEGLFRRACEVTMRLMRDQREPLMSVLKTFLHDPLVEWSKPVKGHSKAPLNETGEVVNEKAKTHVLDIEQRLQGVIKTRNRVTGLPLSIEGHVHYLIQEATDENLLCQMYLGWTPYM

| Compound | Ki [nM] |
| --- | --- |
| CN1CCN(c2c(F)cncc2NC(=O)c2c(N)nn3cc(C(C)(C)C#N)cnc23)CC1 [I-N-138, 2-amino-6-(2-cyanopropan-2-yl)-N-(5-fluoro-4-(4-methylpiperazin-1-yl)pyridin-3-yl)pyrazolo[1,5-a]pyrimidine-3-carboxamide] | 1000 to 5000 |

Same assay, conditions: Ki(app), 5 nM full-length ATR, 10 μM ATP, 25° C.

| Compound | Ki [nM] |
| --- | --- |
| Nc1nn2cc(Cl)cnc2c1C(=O)Nc1cnccc1C1CCN(C2COC2)CC1 [I-C-11, 2-amino-6-chloro-N-(4-(1-(oxetan-3-yl)piperidin-4-yl)pyridin-3-yl)pyrazolo[1,5-a]pyrimidine-3-carboxamide] | 10 to 1000 |
| COc1cncc(NC(=O)c2c(N)nn3cc(F)cnc23)c1C1CC1 [I-C-84, 2-amino-N-(4-cyclopropyl-5-methoxypyridin-3-yl)-6-fluoropyrazolo[1,5-a]pyrimidine-3-carboxamide] | 10 to 1000 |
| Nc1nn2cc(Cl)cnc2c1C(=O)Nc1cnccc1N1CCN2CCC1CC2 [I-N-56, N-(4-(1,4-diazabicyclo[3.2.2]nonan-4-yl)pyridin-3-yl)-2-amino-6-chloropyrazolo[1,5-a]pyrimidine-3-carboxamide] | 10 to 1000 |
| CN1CCN(c2ccncc2NC(=O)c2c(N)nn3cc(CC#N)cnc23)CC1 [I-N-82, 2-amino-6-(cyanomethyl)-N-(4-(4-methylpiperazin-1-yl)pyridin-3-yl)pyrazolo[1,5-a]pyrimidine-3-carboxamide] | < 10 |
| CC1(N2CCN(c3ccncc3NC(=O)c3c(N)nn4cc(Cl)cnc34)CC2)COC1 [I-N-25, 2-amino-6-chloro-N-(4-(4-(3-methyloxetan-3-yl)piperazin-1-yl)pyridin-3-yl)pyrazolo[1,5-a]pyrimidine-3-carboxamide] | 10 to 1000 |
| Nc1nn2cc(F)cnc2c1C(=O)Nc1cncc(F)c1N1CCC(C(=O)N2CC3CNCC3C2)CC1 (centres unmarked) [I-G-51, 2-amino-6-fluoro-N-(5-fluoro-4-(4-(octahydropyrrolo[3,4-c]pyrrole-2-carbonyl)piperidin-1-yl)pyridin-3-yl)pyrazolo[1,5-a]pyrimidine-3-carboxamide] | 10 to 1000 |
| COc1cncc(NC(=O)c2c(N)nn3cc(F)cnc23)c1-c1cncn1C [I-C-81, 2-amino-6-fluoro-N-(5-methoxy-4-(1-methyl-1H-imidazol-5-yl)pyridin-3-yl)pyrazolo[1,5-a]pyrimidine-3-carboxamide] | < 10 |

Now from value to compound:

| Ki [nM] | Compound |
| --- | --- |
| < 10 | N#CCc1cnc2c(C(=O)Nc3cnccc3OC3CCCOC3)c(N)nn2c1 (centres unmarked) [I-O-41, 2-amino-6-(cyanomethyl)-N-(4-((tetrahydro-2H-pyran-3-yl)oxy)pyridin-3-yl)pyrazolo[1,5-a]pyrimidine-3-carboxamide] |
| 10 to 1000 | CC1(C)CN(c2ccncc2NC(=O)c2c(N)nn3cc(F)cnc23)CCS1(=O)=O [I-N-252, 2-amino-N-(4-(2,2-dimethyl-1,1-dioxidothiomorpholino)pyridin-3-yl)-6-fluoropyrazolo[1,5-a]pyrimidine-3-carboxamide] |
| 10 to 1000 | Nc1nn2cc(Cl)cnc2c1C(=O)Nc1cnccc1OC1CC2(CNC2)C1 [I-O-72, N-(4-(2-azaspiro[3.3]heptan-6-yloxy)pyridin-3-yl)-2-amino-6-chloropyrazolo[1,5-a]pyrimidine-3-carboxamide] |
| 10 to 1000 | CN(C)S(=O)(=O)C1CCN(c2c(F)cncc2NC(=O)c2c(N)nn3cc(F)cnc23)CC1 [I-N-146, 2-amino-N-(4-(4-(N,N-dimethylsulfamoyl)piperidin-1-yl)-5-fluoropyridin-3-yl)-6-fluoropyrazolo[1,5-a]pyrimidine-3-carboxamide] |
| 10 to 1000 | Nc1nn2cc(F)cnc2c1C(=O)Nc1cnccc1-n1ccnc1C(F)(F)F [I-N-219, 2-amino-6-fluoro-N-(4-(2-(trifluoromethyl)-1H-imidazol-1-yl)pyridin-3-yl)pyrazolo[1,5-a]pyrimidine-3-carboxamide] |
| 10 to 1000 | CN(C)C(=O)[C@H]1CC[C@@H](Oc2ccncc2NC(=O)c2c(N)nn3cc(F)cnc23)CC1 [I-O-17, 2-amino-N-(4-(((1s,4s)-4-(dimethylcarbamoyl)cyclohexyl)oxy)pyridin-3-yl)-6-fluoropyrazolo[1,5-a]pyrimidine-3-carboxamide] |

Source: patent US10392391B2 (Vertex Pharmaceuticals Incorporated, priority 2012, dated 2019)
